Data published in US11591319B2, “Small molecule inducers of autophagy” (Board of Regents, The University of Texas System, priority 2018, dated 2023).

Experiments:
[1] = biological target: T1, Beclin 1/Bcl-2 interaction (Homo sapiens (Human), UniProt P10415); test: Beclin 1/Bcl-2 AlphaLISA assay (dose-response); assay type: binding; details: positive control
Description: We also developed a high-throughput Beclin 1/Bcl-2 AlphaLISA assay to directly measure the in vitro interaction between Beclin 1 and Bcl-2. AlphaLISA is a bead-based proximity assay that is capable of measuring protein-protein interaction in homogeneous solution.^41 Oxygen singlet molecules are generated by Alpha donor beads upon irradiation at 680 nm and travel to acceptor beads in proximity. […] Thus, a measurable Alpha luminescence signal requires chemical energy transfer between the donor and acceptor beads, and a pair of interacting molecules immobilized on the beads stabilizes bead association to produce measurable Alpha signals.
We used purified recombinant Beclin 1 and Bcl-2 proteins for AlphaLISA, which were optimized for enhanced solubility and expression. Human Beclin 1 was expressed as a fusion protein with StrepII-SUMO at the N-terminus, and three residues on the aromatic finger of Beclin 1 were mutated (F359D/F360D/W361D) to improve solubility and protein stability.^42 These mutations are in the BARA domain, which is far from the BH3 motif recognized by Bcl-2. A recombinant Bcl-2-binding deficient mutant of Beclin 1 (StrepII-SUMO-Beclin 1^ΔBcl-2BD) was used as a negative control. […] For a normalization control, we included a parallel AlphaLISA assay with purified SUMO protein (with an N-terminal StrepII tag and a C-terminal 6xHis tag). The purpose of a normalization control is to eliminate inner filter (false-positive) hits that reduce luminescence signal by interfering with the AlphaLISA assay in ways that are unrelated to the Beclin 1/Bcl-2 interaction. With the normalization control, the interaction of Beclin 1 and Bcl-2 was measured as follows:
All AlphaLISA assays were performed in triplicate in a 384-well format with BB buffer (phosphate-buffered saline supplemented with 0.5% BSA and 1 mM DTT). For the Beclin 1/Bcl-2 AlphaLISA, purified StrepII-SUMO-Beclin 1 was incubated with Bcl-2-6xHis proteins at 300 nM and 60 nM, respectively. For internal control AlphaLISA assays, StrepII-SUMO-6xHis protein (internal control) was used at 20 nM. […] Following the initial incubation, Strep-Tactin Alpha donor (AS106D) and anti-6xHis AlphaLISA acceptor beads (AL128M) were added to a final concentration of 40 μg/mL each and incubated at room temperature in the dark for an additional 1 h. All samples were evaluated in triplicate. Alpha signals were measured by an Envision plate reader (Perkin Elmer). Beclin 1/Bcl-2 Alpha signal was normalized with internal control Alpha signal. The normalized value represents the binding activity of Beclin 1 and Bcl-2. The percent activity of a compound was calculated as the following formula: […]
Protein or peptide concentrations used in dose-response AlphaLISA experiments were as follows: Beclin1/Bcl-2—300 nM/60 nM; SUMO (internal control for Beclin 1/Bcl-2 AlphaLISA)—20 nM; Beclin 1 BH3/Bcl-2—1000 nM/60 nM; Bax BH3/Bcl-2—100 nM/20 nM; Biotin-6xHis (internal control for BH3/Bcl-2 AlphaLISA)—10
Target sequence in this assay (P10415 1-218): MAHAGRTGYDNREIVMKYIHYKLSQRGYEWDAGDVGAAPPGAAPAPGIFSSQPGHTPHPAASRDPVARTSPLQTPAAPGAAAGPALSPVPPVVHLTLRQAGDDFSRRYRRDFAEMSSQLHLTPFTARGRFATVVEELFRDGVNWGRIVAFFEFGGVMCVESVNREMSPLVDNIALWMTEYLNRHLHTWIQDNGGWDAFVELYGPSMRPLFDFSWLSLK

[2] = biological target: BH3 domain of Beclin 1/Bcl-2 (Homo sapiens (Human), UniProt P10415); test: Beclin 1 BH3 peptide/Bcl-2 AlphaLISA; assay type: binding; details: AlphaLISA with BH3 peptide
Description: (§1) To assess selectivity for disruption of binding of the BH3 domain of Beclin 1 to Bcl-2 as compared to that of a pro-apoptotic Bcl-2 family member, we used an AlphaLISA with purified recombinant Bcl-2 and peptides spanning either the BH3 domain (amino acids 105-130) of Beclin 1 or the BH3 domain (amino acids 49-84) of Bax.
(§2) The Beclin 1 BH3 peptide consists of an N-terminally linked biotin, a YGGGGS linker, and […] (a.a. 105-130) derived from human Beclin 1. Bax BH3 peptide consists of an N-terminally linked biotin, a YGGGGS linker, and 36 amino acids (a.a. 49-84) derived from human Bax. Biotin-6xHis control peptide consists of an N-terminally linked biotin, a YGGGGS linker, and a 6xHis tag at C-terminus.
(§3) For dose-response AlphaLISA experiments, compounds were serially diluted (2-fold, 7 point) with DMSO and added to BB buffer containing purified recombinant proteins or biotinylated peptides at a final concentration range of 10 μM to 156 nM. Protein or peptide concentrations used in dose-response AlphaLISA experiments were as follows: Beclin1/Bcl-2—300 nM/60 nM; SUMO (internal control for Beclin 1/Bcl-2 AlphaLISA)—20 nM; Beclin 1 BH3/Bcl-2—1000 nM/60 nM; Bax BH3/Bcl-2—100 nM/20 nM; Biotin-6xHis (internal control for BH3/Bcl-2 AlphaLISA)—10

BH3 domain of Bax/Bcl-2 = BH3 domain of Bax/Bcl-2 (Homo sapiens (Human), UniProt P10415); test: Bax BH3 peptide/Bcl-2 AlphaLISA; assay type: binding; details: AlphaLISA with BH3 peptide
Description: as §1, §2, §3

[3] = biological target: Bim/Myc-Bcl-2 interaction (Homo sapiens (Human), UniProt P10415); test: Co-immunoprecipitation of Bim with Myc-Bcl-2 in HeLa cells; assay type: cell-based; details: 12 h treatment
Description: For the two compounds for which we had sufficient supply for large-scale tissue culture experiments (SW063058 and SW076956), we examined their effects on Beclin 1, Bax, and Bim co-immunoprecipitation with Bcl-2.

[4] = biological target: T1, Beclin 1/Bcl-2 interaction; test: Beclin 1/Bcl-2 split-luciferase assay in HeLa cells; assay type: cell-based
Target sequence in this assay (P10415 whole entry): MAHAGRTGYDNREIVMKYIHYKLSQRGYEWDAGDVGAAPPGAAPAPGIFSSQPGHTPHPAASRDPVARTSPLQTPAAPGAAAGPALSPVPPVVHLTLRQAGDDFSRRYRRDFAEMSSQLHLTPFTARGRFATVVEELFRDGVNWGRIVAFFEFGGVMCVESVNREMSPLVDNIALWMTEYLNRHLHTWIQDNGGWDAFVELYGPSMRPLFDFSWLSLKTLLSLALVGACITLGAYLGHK
Description: The split-luciferase approach relies on the reconstitution of two fragments of firefly luciferase, NLuc (amino acids 2-416) and CLuc (amino acids 398-550) expressed with proteins of interest as fusion partners. Upon the binding of interacting partners, two non-functional fragments of the luciferase are brought into proximity, forming an active luciferase protein. To measure Beclin 1/Bcl-2 interaction with the split-luciferase assay, we created HeLa cell lines expressing N-terminal NLuc-tagged Beclin 1 (NLuc-Beclin 1) and CLuc-tagged Bcl-2 (CLuc-Bcl-2) as split-luciferase reporters. […] Renilla luciferase was constitutively expressed as an internal control. The interaction of Beclin 1/Bcl-2 was measured as relative luminescence units (RLU), which was the calculated ratio of split-luciferase and Renilla luciferase signals: […]
DMSO (neutral control), ABT-737 (positive control), or the library compounds were added to a final concentration of 5 μM and incubated at 37° C. […] After 5 h of incubation, the medium was removed by centrifugation and the activity of Beclin 1/Bcl-2 split-luciferase reporters was measured with Dual-Glo® Luciferase Assay System (Promega). […] Ten microliters of 1× RL buffer (Stop & Glo Reagent) was then added to the sample, the sample was incubated at room temperature for 10 min, and the activity of Renilla luciferase was measured again. […]

[5] = system: HeLa cells stably expressing GFP-LC3; test: GFP-LC3 puncta quantitation (autophagy); assay type: cell-based
Protocol: We used well-established assays to assess their autophagic activity,^45 including (i) quantitation of GFP-LC3 puncta (which label autophagosomes) in the presence and absence of the lysosomal inhibitor, bafilomycin A1 (Baf A1), and (ii) western blot analysis of the conversion of LC3-I to the lipidated, autophagosomal-associated protein, LC3-II in the presence and absence of Baf A1. […] Shorter durations of lower concentrations of compounds (10 μM) also produced similar results. […] Thus, these compounds induce autophagic flux in HeLa cells.
(§4) We assessed whether the induction of autophagy by SW063058 and SW076956 requires Beclin 1 and Bcl-2 using siRNA to knockdown each protein, respectively, in HeLa, cells.

HeLa cells [6] = test: p62 levels after Beclin 1 or Bcl-2 siRNA knockdown; assay type: cell-based; details: cells with either Beclin 1 or Bcl-2 knockdown
Description: as §4

HeLa cells [7] = test: CellTiter-Glo cytotoxicity assay; assay type: cell-based; details: 20 μM
[8] = system: HeLa cells that overexpress Bcl-2; test: CellTiter-Glo cell death in Bcl-2 overexpressing cells; assay type: cell-based
PARP = PARP cleavage (apoptosis); assay type: cell-based; details: 10 or 20 μM

Chain of BH3 domain of Bax/Bcl-2 (P10415 1-218): as the sequence (P10415 1-218) above
Chain of BH3 domain of Beclin 1/Bcl-2 (P10415 1-218): as above
Chain of Bim/Myc-Bcl-2 interaction (P10415 whole entry): as the sequence (P10415 whole entry) above

CN(C)CC[C@H](CSc1ccccc1)Nc1ccc(S(=O)(=O)NC(=O)c2ccc(N3CCN(Cc4ccccc4-c4ccc(Cl)cc4)CC3)cc2)cc1[N+](=O)[O-] [ABT-737]
inhibition of Beclin 1/Bcl-2 Alpha signal [1]: inhibited in a dose-dependent manner | binding of the BH3 domain of Beclin 1 to Bcl-2 [2]: nanomolar efficiency | binding of the BH3 domain of Bax to Bcl-2 (BH3 domain of Bax/Bcl-2): nanomolar efficiency | Bim/Myc-Bcl-2 interaction (co-immunoprecipitation) [3]: disrupt co-immunoprecipitation | split-luciferase luminescence activity [4]: inhibited in a dose-dependent manner | GFP-LC3 puncta in Bcl-2 knockdown cells ([5]; Bcl-2 siRNA): no further increase in GFP-LC3 puncta | GFP-LC3 puncta in Beclin 1 knockdown cells ([5]; Beclin 1 siRNA): no further increase in GFP-LC3 puncta | p62 levels (HeLa cells [6]): failed to alter p62 levels | cytotoxicity (CellTiter-Glo) (HeLa cells [7]): mild cytotoxicity | cell death in HeLa cells that overexpress Bcl-2 [8]: more pronounced dose-dependent increase in cell death | PARP cleavage (PARP): dose-dependent increase in PARP cleavage
